Measured values as given in ChEMBL document CHEMBL1153896, “Antiproliferative cardenolide glycosides of Elaeodendron alluaudianum from the Madagascar Rainforest” (Bioorg Med Chem, 2009).

How the values were obtained:
Type in all cases: functional, cell-based
KB = experiment: Antiproliferative activity against human KB cells
[1] = Antiproliferative activity against HSG cells; conditions: Homo sapiens
U-937 = experiment: Antiproliferative activity against human U937 cells after 96 hrs by celltiter-glo luminescent cell viability assay; conditions: U-937, 96 h
A2780 = experiment: Antiproliferative activity against human A2780 cells after 96 hrs by celltiter-glo luminescent cell viability assay; conditions: A2780, 96 h

SMILES | IC50 (KB) | IC50 [1] | IC50 (U-937) | IC50 (A2780)
C[C@H]1O[C@@H](O[C@H]2CC[C@]3(C=O)[C@H]4[C@H](O)C[C@]5(C)[C@@H](C6=CC(=O)OC6)CC[C@]5(O)[C@@H]4CC[C@]3(O)C2)[C@H](O)[C@H](O)[C@H]1O | 74 nM |  |  | 
C[C@H]1O[C@@H](O[C@H]2[C@H](O)[C@H](O)[C@H](O[C@H]3CC[C@]4(C=O)[C@H]5[C@H](O)C[C@]6(C)[C@@H](C7=CC(=O)OC7)CC[C@]6(O)[C@@H]5CC[C@]4(O)C3)O[C@@H]2C)[C@@H](O)[C@@H](O)[C@@H]1O |  | 49 nM |  | 
C[C@H]1O[C@@H](O[C@H]2CC[C@]3(CO)[C@H]4[C@H](O)C[C@]5(C)[C@@H](C6=CC(=O)OC6)CC[C@]5(O)[C@@H]4CC[C@]3(O)C2)[C@H](O)[C@H](O)[C@@H]1O[C@@H]1O[C@H](CO)[C@@H](O)[C@@H](O)[C@H]1O [ELAEODENDROSIDE V] |  |  | 150 nM | 120 nM
C[C@H]1O[C@@H](O[C@H]2CC[C@]3(C=O)[C@H]4[C@H](O)C[C@]5(C)[C@@H](C6=CC(=O)OC6)CC[C@]5(O)[C@@H]4CC[C@]3(O)C2)[C@H](O)[C@H](O)[C@@H]1O[C@@H]1O[C@H](CO)[C@@H](O)[C@@H](O)[C@H]1O [ELAEODENDROSIDE W] |  |  | 80 nM | 70 nM
